This is an account of results in patent US4447611A, “Benzo-fused and heterocyclic fused imidazole anti-ulcer agents” (American Home Products Corporation, priority 1982, dated 1984).

For one data set, the target named is T1, H2 histamine receptors (Cavia porcellus, UniProt P47747).
T1 construct: from tissue; host or cells: guinea pig right atrium (isolated, spontaneously beating)
Description: guinea pig heart atrium test (histamine-induced positive chronotropic response in spontaneously beating right atrium). It counts as cell-based. Conditions: 32° C., pH 7.4, 30 minutes after addition of compound, vs histamine dose-response. As for the experimental part: The guinea pig heart atrium test is carried out as follows:
The tissue is allowed to stabilize over 1 hour. Individual contractions are recorded with a force-displacement transducer through a strain gauge coupler. A control dose-response curve to histamine in the above described tissue bath is obtained after which the tissue is washed 3 times and allowed to re-equilibrate to basal rate. The test compound is added to the tissue bath at the desired final concentration. Thirty minutes after addition of the compound, a fresh histamine dose response curve is again obtained. Then the response to histamine in the presence of antagonist is compared to the histamine control response. This procedure is repeated, using fresh tissues, for each concentration of antagonist tested.

In a further data set the test system is rat gastric secretion. As to the kind of experiment: gastric secretion in the pylorus-ligated rat (modified Shay procedure). It counts as in vivo. Conditions: 32 mg/kg, interduodenally (i.d.), four hours after ligation, male Charles River rats. The protocol: The procedures for the results of these tests are presented at the end of the following examples, which will serve to illustrate the present invention.
The procedure for testing gastric secretion in the rat, a modification of the procedure of Shay et al., Gastroenterology, 26, 906-13 (1954) is carried out as follows:
Male Charles River rats weighing 200-300 grams are deprived of food but not water for 24 hours prior to use. Water is, however, withheld during the experiment. The rats are weighed, anesthetized, and the pylorus ligated according to the method of Shay et al. Treatment or vehicle control is then administered interduodenally (i.d.). Rats are housed 2/cage and sacrificed with CO2 four hours after ligation. The stomachs are removed, rinsed, and contents emptied into a graduated centrifuge tube. The tubes are centrifuged for 20 minutes at 2,000 RPM and the volume of gastric juice recorded. Any samples obviously contamined by feces, food or hemolysis are eliminated. An aliquot of each is frozen for later analysis of Na^+, K^+ and Cl^- concentration. The pH is measured and 1 ml. of gastric juice is titrated with 0.1 N NaOH to a pH of 7.0-7.4 Titratable acid output is calculated in microequivalents and the percent inhibition of acid output is calculated as follows: [formula]

For data set [1] the following is noted: cited from earlier work.

T1 sequence (P47747 whole entry): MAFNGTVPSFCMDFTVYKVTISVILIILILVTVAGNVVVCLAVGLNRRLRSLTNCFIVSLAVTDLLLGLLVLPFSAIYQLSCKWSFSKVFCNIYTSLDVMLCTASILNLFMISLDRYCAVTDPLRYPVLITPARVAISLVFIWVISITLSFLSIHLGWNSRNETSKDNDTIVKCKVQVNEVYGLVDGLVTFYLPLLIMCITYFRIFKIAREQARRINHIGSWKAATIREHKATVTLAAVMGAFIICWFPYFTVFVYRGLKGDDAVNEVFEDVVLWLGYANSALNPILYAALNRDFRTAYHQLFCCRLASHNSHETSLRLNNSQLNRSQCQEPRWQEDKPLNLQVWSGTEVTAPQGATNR

With `c1cc(CN2CCCCC2)cc(OCCCNc2nc3ccccc3[nH]2)c1` [A, 2-[3-[3-[(1-piperidinylmethyl)]phenoxy]propylamine]benzimidazole], the “pA2 Value (apparent dissociation constant of the H2 antagonist)” value at H2 histamine receptors was found to be 7.1. Also, the “% Inhibition (of acid output)” value in the data set with rat gastric secretion is 65%.
For the molecule `CN/C(=N/CCSCc1nc[nH]c1C)NC#N` [Cimetidine], the “confusional states (in words)” value in data set [1] (elderly patients) is “a tendency to cause confusional states in elderly patients”. In data set [1] (patients), the “anti-androgenic activity (in words)” value is “anti-androgenic activity” and the “duration of action (in words)” value was “short duration of action”.
